{"source": "paper PMC11960431", "about": "“A novel function of short cationic peptide FP-CATH9 without antimicrobial activity reverses resistance to minocycline in common multidrug-resistant gram-negative bacteria” (Microbiology Spectrum, 2025)", "key": {"[1]": {"test_system": "Clinical K. pneumoniae 3 (minocycline resistance)", "test": "Disk diffusion plate assay, inhibition zone (peptide alone and antibiotic sensitization)", "conditions": "for Inhibition zone (mm) Contains FP-CATH9 / Inhibition zone (mm) Normal saline control: K. pneumoniae strain 3, mean ± SD, repeated three times; for Inhibition zone (mm) Contains FP-CATH9: antibiotic disk + FP-CATH9 (20 µg peptide in 10 µL); for Inhibition zone (mm) Normal saline control: antibiotic disk + normal saline, without FP-CATH9"}, "[2]": {"test_system": "Clinical A. baumannii 1 (minocycline sensitive)", "test": "MIC, broth microdilution (CLSI)", "format": "cell-based, Acinetobacter baumannii", "conditions": "peptide alone, repeated three times"}, "[3]": {"test_system": "Clinical K. pneumoniae 2 (minocycline mediated)", "format": "cell-based, Klebsiella pneumoniae", "conditions": "peptide alone, repeated three times"}, "S. aureus ATCC 29213": {"test_system": "S. aureus ATCC 29213", "test": "MIC, broth microdilution (CLSI)", "format": "cell-based", "conditions": "peptide alone, repeated three times"}, "[4]": {"test_system": "Clinical K. pneumoniae 1 (minocycline sensitive)", "test": "MIC, broth microdilution (CLSI)", "format": "cell-based, Klebsiella pneumoniae", "conditions": "peptide alone, repeated three times"}, "[5]": {"test_system": "Clinical A. baumannii 2 (minocycline mediated)", "format": "cell-based, Acinetobacter baumannii", "conditions": "peptide alone, repeated three times"}, "A. baumannii ATCC 19606": {"test_system": "A. baumannii ATCC 19606", "test": "MIC, broth microdilution (CLSI)", "format": "cell-based, Acinetobacter baumannii", "conditions": "peptide alone, repeated three times"}, "E. coli ATCC BW25113": {"test_system": "E. coli ATCC BW25113", "test": "MIC, broth microdilution (CLSI)", "format": "cell-based, Escherichia coli", "conditions": "peptide alone, repeated three times"}, "P. aeruginosa ATCC 27853 [6]": {"test_system": "P. aeruginosa ATCC 27853", "test": "MIC, broth microdilution (CLSI)", "format": "cell-based, Pseudomonas aeruginosa", "conditions": "peptide alone, repeated three times"}, "[7]": {"test_system": "K. pneumoniae ATCC 700603", "format": "cell-based, Klebsiella pneumoniae", "conditions": "peptide alone, repeated three times"}, "bovine erythrocytes": {"test_system": "bovine erythrocytes", "test": "Hemolytic activity", "format": "cell-based", "conditions": "5% bovine erythrocyte suspension, 128 µg/mL, 37°C, 1 h, absorbance 540 nm; 0.2% Triton X-100 positive control; mean ± SD", "protocol": "Refer to the method of a reference ([21]). Determination of hemolytic activity. Fresh bovine blood cells (Guangzhou Hongquan Biotechnology Co., Ltd., No: HQ80074) were washed with normal saline three times and configured into 5% erythrocyte suspension. […] The supernatant was absorbed, and the absorption value was measured at a 540 nm wavelength. Normal saline was used as negative control, and 0.2% Triton X-100 was used as positive control. The percentage of hemolysis rate is calculated by the following formula: hemolysis rate % = A(sample) − A(negative control) / A(positive control) × 100%."}, "[8]": {"test_system": "Clinical P. aeruginosa 3 (minocycline resistance)", "conditions": "peptide alone, repeated three times", "protocol": "(§1) The antimicrobial activity of FP-CATH9 was determined through broth microdilution and plate assays in an antibiotic disk diffusion test.\n(§2) The MIC of FP-CATH9 was determined using broth microdilution as recommended by Clinical and Laboratory Standards Institute (CLSI). Sensitivity to other antibiotics was assessed using the VITEK 2 Compact System (bioMerieux, France). Antimicrobial activity was determined using the Clinical and Laboratory Standards Institute (CLSI) Standard Reference method([17])."}, "[9]": {"test_system": "Clinical P. aeruginosa 1 (minocycline resistance)", "conditions": "peptide alone, repeated three times", "protocol": "as §1, §2"}, "[10]": {"test_system": "Clinical P. aeruginosa 2 (minocycline resistance)", "conditions": "peptide alone, repeated three times", "protocol": "as §1, §2"}, "[11]": {"test_system": "Clinical A. baumannii 3 (minocycline resistance)", "conditions": "peptide alone, repeated three times", "protocol": "as §1, §2"}, "[12]": {"test_system": "Clinical K. pneumoniae 3 (minocycline resistance)", "conditions": "peptide alone, repeated three times", "protocol": "as §1, §2"}, "[13]": {"test_system": "Multidrug-resistant K. pneumoniae", "test": "Checkerboard assay, FP-CATH9 and minocycline", "conditions": "18 h"}, "[14]": {"test_system": "Multidrug-resistant K. pneumoniae strain 3", "test": "Time-killing curve", "format": "cell-based, Klebsiella pneumoniae", "conditions": "K. pneumoniae strain 3, 10^6 CFU/mL, 37°C, each agent 16 µg/mL", "protocol": "After 4 h of treatment with minocycline only (16 µg/mL), drug-resistant bacterial cultures were again observed to be growing rapidly.\nRefer to the method of a reference ([19]). The above clinical K. pneumoniae strain 3 was taken in logarithmic stage (oscillatory culture at 37°C) and diluted with fresh MH liquid medium into 10^6 CFU/mL bacterial suspension. […] The bacterial solution added with the drug was placed in an incubator at 37°C for shock culture, and the 50 µL bacterial solution was diluted 1,000 times at 0, 2, 4, 6, 8, 10, and 12 h, respectively. Then, the 50 µL diluted bacteria solution was coated on MH solid medium, and the bacterial colonies were counted after overnight culture at 37°C. Saline was used as a negative control."}, "[15]": {"test_system": "minocycline-resistant K. pneumoniae strain 3", "test": "G. mellonella infection assay", "format": "in vivo, Galleria mellonella", "conditions": "G. mellonella larvae, n = 10, infected with K. pneumoniae strain 3; 16 µg/mL; 7 days", "protocol": "The G. mellonella model of bacterial infection was used to evaluate the combined protective effect of FP-CATH9 and minocycline. In each G. mellonella group (n = 10), G. mellonella survival was recorded every 24 h after infection. […] After the infected group was injectioned with minocycline -resistant K. pneumoniae strain 3 , the larvae all died within 1 day.\nRefer to the method of a reference ([22]). Monoclonal K. pneumoniae strain 3 was selected and cultivated in 5 mL LB broth using a constant temperature oscillator at 200 rpm/min and 37°C for 12 h. After 12 h, the culture was expanded and diluted at the ratio of 1:100. The logarithmic bacterial solution was taken, washed with normal saline, and then suspended in 1 mL system with a concentration of 1.5 × 10^8 CFU/mL. The experiment was divided into 5 groups: the minocycline-resistant K. pneumoniae strain 3 group (treated group), the group injected with FP-CATH9 (16 µg/mL) alone, the group with minocycline (16 µg/mL) alone, the group with FP-CATH9 (16 µg/mL) + minocycline (16 µg/mL), and the NS group (saline group). […]"}, "P. aeruginosa ATCC 27853 [16]": {"test_system": "P. aeruginosa ATCC 27853", "test": "Disk diffusion plate assay, inhibition zone", "format": "cell-based, Pseudomonas aeruginosa", "conditions": "MH paper + 10 µL normal saline, Fig 3A", "protocol": "as §1, §2\n(§3) The concentration of the FP-CATH9 mother solution was 2 mg/mL. The control conditions included MH paper + normal saline (10 µL) , experimental conditions included MH paper + FP-CATH9 (10 µL). Total 10 µL was added to MH paper to detect the dose dependence of sensitization."}, "[17]": {"test_system": "Clinical A. baumannii 3 (minocycline resistance)", "test": "Disk diffusion plate assay, inhibition zone", "format": "cell-based, Acinetobacter baumannii", "conditions": "Multidrug-resistant A. baumannii strain 3; MH paper + 10 µL normal saline; Fig 3B", "protocol": "as §1, §2, §3"}}, "note": "Ends that are not written are not given here."}
{"compound": "Cc1cc(NS(=O)(=O)c2ccc(N)cc2)no1", "note": "[SXT, sulfamethoxazole]", "values": [{"measurement": "Inhibition zone (mm) Contains FP-CATH9", "setting": "[1]", "value": "10.13 ± 0.12", "unit": "mm"}, {"measurement": "Inhibition zone (mm) Normal saline control", "setting": "[1]", "value": "10.23 ± 0.17", "unit": "mm"}]}
{"compound": "C[C@@H](O)[C@H]1C(=O)N2C(C(=O)O)=C(SCCN=CN)C[C@H]12", "note": "[IPM, imipenem]", "values": [{"measurement": "Inhibition zone (mm) Contains FP-CATH9", "setting": "[1]", "value": "9.03 ± 0.05", "unit": "mm"}, {"measurement": "Inhibition zone (mm) Normal saline control", "setting": "[1]", "value": "9.06 ± 0.04", "unit": "mm"}]}
{"compound": "KRFKKFWKK [FP-CATH9]", "values": [{"measurement": "FP-CATH9 MIC", "setting": "[2]", "value": ">512", "unit": "µg/mL"}, {"measurement": "FP-CATH9 MIC", "setting": "[3]", "value": ">512", "unit": "µg/mL"}, {"measurement": "FP-CATH9 MIC", "setting": "S. aureus ATCC 29213", "value": ">512", "unit": "µg/mL"}, {"measurement": "FP-CATH9 MIC", "setting": "[4]", "value": ">512", "unit": "µg/mL"}, {"measurement": "FP-CATH9 MIC", "setting": "[5]", "value": ">512", "unit": "µg/mL"}, {"measurement": "FP-CATH9 MIC", "setting": "A. baumannii ATCC 19606", "value": ">512", "unit": "µg/mL"}, {"measurement": "FP-CATH9 MIC", "setting": "E. coli ATCC BW25113", "value": ">512", "unit": "µg/mL"}, {"measurement": "FP-CATH9 MIC", "setting": "P. aeruginosa ATCC 27853 [6]", "value": ">512", "unit": "µg/mL"}, {"measurement": "FP-CATH9 MIC", "setting": "[7]", "value": ">512", "unit": "µg/mL"}, {"measurement": "hemolysis", "setting": "bovine erythrocytes", "value": "3.97% ± 0.42%"}, {"measurement": "FP-CATH9 MIC", "setting": "[8]", "value": ">512", "unit": "µg/mL"}, {"measurement": "FP-CATH9 MIC", "setting": "[9]", "value": ">512", "unit": "µg/mL"}, {"measurement": "FP-CATH9 MIC", "setting": "[10]", "value": ">512", "unit": "µg/mL"}, {"measurement": "FP-CATH9 MIC", "setting": "[11]", "value": ">512", "unit": "µg/mL"}, {"measurement": "FP-CATH9 MIC", "setting": "[12]", "value": ">512", "unit": "µg/mL"}]}
{"compound": "C[C@@H](O)[C@H]1C(=O)N2C(C(=O)O)=C(S[C@@H]3CN[C@H](C(=O)N(C)C)C3)[C@H](C)[C@H]12", "note": "[MEM, meropenem]", "values": [{"measurement": "Inhibition zone (mm) Contains FP-CATH9", "setting": "[1]", "value": "8.1 ± 0.08", "unit": "mm"}, {"measurement": "Inhibition zone (mm) Normal saline control", "setting": "[1]", "value": "8.16 ± 0.12", "unit": "mm"}]}
{"compound": "NCC[C@H](O)C(=O)N[C@@H]1C[C@H](N)[C@@H](O[C@H]2O[C@H](CN)[C@@H](O)[C@H](O)[C@H]2O)[C@H](O)[C@H]1O[C@H]1O[C@H](CO)[C@@H](O)[C@H](N)[C@H]1O", "note": "[AK, amikacin]", "values": [{"measurement": "Inhibition zone (mm) Contains FP-CATH9", "setting": "[1]", "value": 6, "unit": "mm"}, {"measurement": "Inhibition zone (mm) Normal saline control", "setting": "[1]", "value": 6, "unit": "mm"}]}
{"compound": "CNC(C)C1CCC(N)C(OC2C(N)CC(N)C(OC3OCC(C)(O)C(NC)C3O)C2O)O1", "note": "(centres unmarked) [GN, gentamicin]", "values": [{"measurement": "Inhibition zone (mm) Contains FP-CATH9", "setting": "[1]", "value": 6, "unit": "mm"}, {"measurement": "Inhibition zone (mm) Normal saline control", "setting": "[1]", "value": 6, "unit": "mm"}]}
{"compound": "CN(C)c1ccc(O)c2c1C[C@H]1C[C@H]3[C@H](N(C)C)C(O)=C(C(N)=O)C(=O)[C@@]3(O)C(O)=C1C2=O", "note": "[minocycline]", "values": [{"measurement": "Inhibition zone, control", "setting": "[1]; Multidrug-resistant K. pneumoniae strain 3, MH paper + 10 µL normal saline, Fig 3C", "value": 6, "unit": "mm"}, {"measurement": "MIC", "setting": "[13]; Klebsiella pneumoniae, read-out: MIC of minocycline alone", "value": 128, "unit": "µg/mL"}, {"measurement": "MIC of minocycline combined with FP-CATH9", "setting": "[13]; multidrug-resistant K. pneumoniae, 5 × 10^5 CFU/mL, 37°C", "value": 2, "unit": "µg/mL"}, {"measurement": "effect on bacterial growth at 10 h (time-killing curve)", "setting": "[14]", "value": "no inhibitory effect"}, {"measurement": "protective effect", "setting": "[15]", "value": "little protective effect"}, {"measurement": "Inhibition zone, control", "setting": "P. aeruginosa ATCC 27853 [16]", "value": 6, "unit": "mm"}, {"measurement": "Inhibition zone, control", "setting": "[17]", "value": 11, "unit": "mm"}]}
{"compound": "CC(C)(O/N=C(\\C(=O)N[C@@H]1C(=O)N2C(C(=O)[O-])=C(C[n+]3ccccc3)CS[C@H]12)c1csc(N)n1)C(=O)O", "note": "[CAZ, ceftazidime]", "values": [{"measurement": "Inhibition zone (mm) Contains FP-CATH9", "setting": "[1]", "value": 6, "unit": "mm"}, {"measurement": "Inhibition zone (mm) Normal saline control", "setting": "[1]", "value": 6, "unit": "mm"}]}
{"compound": "CC1(C)S[C@@H]2[C@H](NC(=O)[C@H](N)c3ccccc3)C(=O)N2[C@H]1C(=O)O", "note": "[AMP, ampicillin]", "values": [{"measurement": "Inhibition zone (mm) Contains FP-CATH9", "setting": "[1]", "value": 6, "unit": "mm"}, {"measurement": "Inhibition zone (mm) Normal saline control", "setting": "[1]", "value": 6, "unit": "mm"}]}
{"compound": "CO/N=C(\\C(=O)N[C@@H]1C(=O)N2C(C(=O)O)=C(CSc3nc(=O)c(=O)[nH]n3C)CS[C@H]12)c1csc(N)n1", "note": "[CRO, ceftriaxone]", "values": [{"measurement": "Inhibition zone (mm) Contains FP-CATH9", "setting": "[1]", "value": 6, "unit": "mm"}, {"measurement": "Inhibition zone (mm) Normal saline control", "setting": "[1]", "value": 6, "unit": "mm"}]}
